Test system: aquaporin
Assay: Immersion of round radish slices in red food coloring water (Reference Example 1)
Description: Using radish that was cut into round slices with thicknesses of 6-10 cm, the bottom faces of the round slices were immersed in red food coloring water for 1-16 hours, As the red food coloring, Red No. 102 (chemical name: 7-hydroxy-8-(4-sulfonaphthylazo)-1,3-naphthylenedisulfonic acid=trisodium salt=1½ hydrate) was used.

Compound: O.O.O.O=S(=O)([O-])c1cc(S(=O)(=O)[O-])c2c(N=Nc3ccc(S(=O)(=O)[O-])c4ccccc34)c(O)ccc2c1.O=S(=O)([O-])c1cc(S(=O)(=O)[O-])c2c(N=Nc3ccc(S(=O)(=O)[O-])c4ccccc34)c(O)ccc2c1.[Na+].[Na+].[Na+].[Na+].[Na+].[Na+] [Red No. 102, 7-hydroxy-8-(4-sulfonaphthylazo)-1,3-naphthylenedisulfonic acid=trisodium salt=1½ hydrate]
- permeation of red food coloring into radish tissue (bottom face of round slices immersed, one hour elapsed): had soaked into the connective tissue at the periphery of the round slices from the bottom face
- permeation of red food coloring into radish tissue (round slices immersed for 16 hours): sites permeated by red food coloring water were not found anywhere other than the connective tissue
